Test system: P388
Experiment: Antineoplastic activity against mouse P388 cells
Type: functional

CC(C)C[C@@H]1NC(=O)[C@@H]2CCCN2C(=O)[C@H](C(C)C)NC(=O)c2csc(n2)CNC(=O)c2csc(n2)[C@H](CCC(N)=O)NC1=O [DOLASTATIN 3]
ED50: 2.7 ×10⁻⁷ ug/ml

Source: ChEMBL document CHEMBL1151370, “Marine animal biosynthetic constituents for cancer chemotherapy” (1981)
